Patent publication US11419868B2, “Low dose product and method for treating diarrhea” (MAREGADE RX, LLC, priority 2016, dated 2022)

Experiments:
[1] = test system: rat colonic mucosa; assay: Electrical field stimulation-induced short-circuit current across rat colonic mucosa in Ussing chambers; type: cell-based; conditions: individually or combined; for effect on EFS-induced ΔISC: famotidine 10 μM, cetirizine 5 μM, EFS 16 Hz, FIG. 1; for inhibition of EFS-induced ΔISC: famotidine 200 μM, cetirizine 100 μM, FIG. 2
From the text: (§1) Data are presented as mean±standard error of mean (SEM). […] 2014 December; 63(12):1873-82).

[2] = test system: rat colonic mucosa; assay: PGE2-induced short-circuit current across rat colonic mucosa; type: cell-based; conditions: 6 μM famotidine, 3 μM cetirizine, each alone; FIG. 3
From the text: as §1
(§2) These secretogogues were selected because PGE2 mediates the occurrence of watery diarrhea in response to a low-grade inflammatory insult and forakolin because it selectively activates all forms of cAMP-mediated intestinal secretion.

[3] = test system: rat colonic mucosa; assay: Forskolin-induced short-circuit current across rat colonic mucosa; type: cell-based; conditions: 6 μM famotidine, 3 μM cetirizine, each alone; FIG. 4
From the text: as §1, §2

[4] = test system: acetic acid-induced colonic hypersensitivity; conditions: famotidine 0.6 mg/kg, cetirizine 0.25 mg/kg, each alone, oral twice daily 3.5 days; FIG. 7
[5] = test system: TNBS-induced, post-inflammatory colonic hypersensitivity; assay: TNBS-induced post-inflammatory colonic hypersensitivity model, VMR to CRD; conditions: 0.25 mg/kg cetirizine, 0.6 mg/kg famotidine, each alone, oral twice daily 3.5 days; FIG. 8
[6] = test system: stress-induced visceral hypersensitivity; assay: Chronic water avoidance stress (WAS) model, visceromotor response to colorectal distension; conditions: oral twice daily 3.5 days
[7] = test system: colonic hypersensitivity; assay: Three rat models of colonic hypersensitivity, overall statement and conversion to human equivalent doses; conditions: 0.25 mg/kg cetirizine, 0.6 mg/kg famotidine, two times per day p.o.
[8] = famotidine 0.6 mg/kg, cetirizine 0.25 mg/kg, each alone, FIG. 6
[9] = lowest doses: famotidine 0.3 mg/kg, cetirizine 0.15 mg/kg, alone or in combination, FIG. 5

| SMILES | effect on EFS-induced ΔISC [1] | inhibition of EFS-induced ΔISC [1] | effect on PGE2-induced changes in ISC [2] | effect on forskolin-induced changes in ISC [3] | inhibition of acetic acid-induced colonic hypersensitivity [4] | effect on TNBS-induced colonic hypersensitivity [5] | effect on colonic hypersensitivity [6, 8] | effect on colonic hypersensitivity [6, 9] | inhibitory effect on colonic hypersensitivity in all three rat models [7] |
| --- | --- | --- | --- | --- | --- | --- | --- | --- | --- |
| NC(N)=Nc1nc(CSCCC(N)=NS(N)(=O)=O)cs1 [famotidine] | had no effect | modest changes in ISC | neither drug alone was effective | only minimally effective | not either drug alone, induced a significant inhibition | Neither cetirizine alone nor famotidine alone exhibited any effect | neither drug alone had an effect | had no effect on colonic hypersensitivity | did not result in sufficient inhibition |
| O=C(O)COCCN1CCN(C(c2ccccc2)c2ccc(Cl)cc2)CC1 (centres unmarked) [cetirizine] | had no effect | modest changes in ISC | neither drug alone was effective | only minimally effective | – | Neither cetirizine alone nor famotidine alone exhibited any effect | neither drug alone had an effect | had no effect on colonic hypersensitivity | did not result in sufficient inhibition |
